In the NIST ThermoML archive (doi:10.1021/je0201323):
Numbers after ± are expanded uncertainties.

Test: xn = mol fraction of the nth substance listed
Details: for mass density: 101.3 kPa, Liquid, vibrating tube; for surface tension liquid-gas: Pendant drop shape

CN(C)C=O [dimethylformamide] + Cc1ccccc1
Details	mass density [kg/m3]	surface tension liquid-gas [mN/m]
278.15 K, x2 = 0	963 ± 0.3	–
278.15 K, x2 = 0.1502	949.1 ± 0.3	–
278.15 K, x2 = 0.3	935.7 ± 0.3	–
278.15 K, x2 = 0.4492	923.1 ± 0.3	–
278.15 K, x2 = 0.5998	911 ± 0.2	–
278.15 K, x2 = 0.7548	898.9 ± 0.2	–
283.15 K, x2 = 0	958.3 ± 0.3	–
283.15 K, x2 = 0.1502	944.4 ± 0.3	–
283.15 K, x2 = 0.3	931.1 ± 0.3	–
283.15 K, x2 = 0.4492	918.6 ± 0.3	–
283.15 K, x2 = 0.5998	906.5 ± 0.2	–
283.15 K, x2 = 0.7548	894.5 ± 0.2	–
287.81 K, x2 = 0	–	36.96 ± 0.38
287.81 K, x2 = 0.1502	–	35.22 ± 0.36
287.81 K, x2 = 0.3	–	33.42 ± 0.35
287.81 K, x2 = 0.4492	–	32.15 ± 0.34
287.81 K, x2 = 0.5998	–	31.2 ± 0.33
287.81 K, x2 = 0.7548	–	30.17 ± 0.32
288.15 K, x2 = 0	953.7 ± 0.3	–
288.15 K, x2 = 0.1502	939.9 ± 0.3	–
288.15 K, x2 = 0.3	926.6 ± 0.3	–
288.15 K, x2 = 0.4492	914.1 ± 0.3	–
288.15 K, x2 = 0.5998	902 ± 0.2	–
288.15 K, x2 = 0.7548	890 ± 0.2	–
293.15 K, x2 = 0	949.1 ± 0.3	–
293.15 K, x2 = 0.1502	935.3 ± 0.3	–
293.15 K, x2 = 0.3	922 ± 0.3	–
293.15 K, x2 = 0.4492	909.5 ± 0.2	–
293.15 K, x2 = 0.5998	897.5 ± 0.2	–
293.15 K, x2 = 0.7548	885.5 ± 0.2	–
297.82 K, x2 = 0	–	35.83 ± 0.37
297.82 K, x2 = 0.1502	–	33.97 ± 0.35
297.82 K, x2 = 0.3	–	32.5 ± 0.34
297.82 K, x2 = 0.4492	–	31.04 ± 0.33
297.82 K, x2 = 0.5998	–	30.04 ± 0.32
297.82 K, x2 = 0.7548	–	29.17 ± 0.31
298.15 K, x2 = 0	944.5 ± 0.3	–
298.15 K, x2 = 0.1502	930.6 ± 0.3	–
298.15 K, x2 = 0.3	917.4 ± 0.3	–
298.15 K, x2 = 0.4492	905 ± 0.2	–
298.15 K, x2 = 0.5998	892.9 ± 0.2	–
298.15 K, x2 = 0.7548	880.9 ± 0.2	–
303.15 K, x2 = 0	939.9 ± 0.3	–
303.15 K, x2 = 0.1502	926.1 ± 0.3	–
303.15 K, x2 = 0.3	912.9 ± 0.2	–
303.15 K, x2 = 0.4492	900.4 ± 0.2	–
303.15 K, x2 = 0.5998	888.4 ± 0.2	–
303.15 K, x2 = 0.7548	876.4 ± 0.2	–
307.86 K, x2 = 0	–	34.65 ± 0.36
307.86 K, x2 = 0.1502	–	32.84 ± 0.34
307.86 K, x2 = 0.3	–	31.2 ± 0.33
307.86 K, x2 = 0.4492	–	29.86 ± 0.32
307.86 K, x2 = 0.5998	–	28.98 ± 0.31
307.86 K, x2 = 0.7548	–	28.06 ± 0.3
308.15 K, x2 = 0	935.4 ± 0.3	–
308.15 K, x2 = 0.1502	921.5 ± 0.3	–
308.15 K, x2 = 0.3	908.3 ± 0.2	–
308.15 K, x2 = 0.4492	895.9 ± 0.2	–
308.15 K, x2 = 0.5998	883.8 ± 0.2	–
308.15 K, x2 = 0.7548	871.8 ± 0.2	–
313.15 K, x2 = 0	930.9 ± 0.3	–
313.15 K, x2 = 0.1502	917 ± 0.2	–
313.15 K, x2 = 0.3	903.8 ± 0.2	–
313.15 K, x2 = 0.4492	891.3 ± 0.2	–
313.15 K, x2 = 0.5998	879.2 ± 0.2	–
313.15 K, x2 = 0.7548	867.2 ± 0.2	–
317.86 K, x2 = 0	–	33.37 ± 0.35
317.86 K, x2 = 0.1502	–	31.7 ± 0.33
317.86 K, x2 = 0.3	–	30.21 ± 0.32
317.86 K, x2 = 0.4492	–	28.77 ± 0.31
317.86 K, x2 = 0.5998	–	27.61 ± 0.3
317.86 K, x2 = 0.7548	–	26.85 ± 0.29
318.15 K, x2 = 0	926.3 ± 0.3	–
318.15 K, x2 = 0.1502	912.4 ± 0.2	–
318.15 K, x2 = 0.3	899.2 ± 0.2	–
318.15 K, x2 = 0.4492	886.7 ± 0.2	–
318.15 K, x2 = 0.5998	874.6 ± 0.2	–
318.15 K, x2 = 0.7548	862.5 ± 0.2	–
323.15 K, x2 = 0	921.7 ± 0.3	–
323.15 K, x2 = 0.1502	907.8 ± 0.2	–
323.15 K, x2 = 0.3	894.6 ± 0.2	–
323.15 K, x2 = 0.4492	882 ± 0.2	–
323.15 K, x2 = 0.5998	869.9 ± 0.2	–
323.15 K, x2 = 0.7548	857.9 ± 0.2	–
327.88 K, x2 = 0	–	32.03 ± 0.34
327.88 K, x2 = 0.1502	–	30.5 ± 0.33
327.88 K, x2 = 0.3	–	29.04 ± 0.32
327.88 K, x2 = 0.4492	–	27.62 ± 0.31
327.88 K, x2 = 0.5998	–	26.59 ± 0.31
327.88 K, x2 = 0.7548	–	25.7 ± 0.3
328.15 K, x2 = 0	917.9 ± 0.2	–
328.15 K, x2 = 0.1502	903.3 ± 0.2	–
328.15 K, x2 = 0.3	890.1 ± 0.2	–
328.15 K, x2 = 0.4492	877.5 ± 0.2	–
328.15 K, x2 = 0.5998	865.3 ± 0.2	–
328.15 K, x2 = 0.7548	853.2 ± 0.2	–
333.15 K, x2 = 0	913.2 ± 0.2	–
333.15 K, x2 = 0.1502	899 ± 0.2	–
333.15 K, x2 = 0.3	885.7 ± 0.2	–
333.15 K, x2 = 0.4492	873 ± 0.2	–
333.15 K, x2 = 0.5998	860.7 ± 0.2	–
333.15 K, x2 = 0.7548	848.5 ± 0.2	–

Cc1ccccc1 [toluene] + CCCCCCC
Details	mass density [kg/m3]	surface tension liquid-gas [mN/m]
278.15 K, x2 = 0	880.3 ± 0.2	–
278.15 K, x2 = 0.15	843.7 ± 0.3	–
278.15 K, x2 = 0.299	811.3 ± 0.3	–
278.15 K, x2 = 0.449	782 ± 0.3	–
278.15 K, x2 = 0.595	756.4 ± 0.3	–
278.15 K, x2 = 0.749	732.6 ± 0.3	–
283.15 K, x2 = 0	875.9 ± 0.2	–
283.15 K, x2 = 0.15	839.3 ± 0.3	–
283.15 K, x2 = 0.299	807 ± 0.3	–
283.15 K, x2 = 0.449	777.8 ± 0.3	–
283.15 K, x2 = 0.595	752.2 ± 0.3	–
283.15 K, x2 = 0.749	728.4 ± 0.3	–
287.81 K, x2 = 0	–	28.93 ± 0.31
287.81 K, x2 = 0.299	–	24.49 ± 0.28
287.81 K, x2 = 0.449	–	23.38 ± 0.27
287.81 K, x2 = 0.595	–	22.41 ± 0.27
287.81 K, x2 = 0.749	–	21.58 ± 0.26
288.15 K, x2 = 0	871.4 ± 0.2	–
288.15 K, x2 = 0.15	834.9 ± 0.3	–
288.15 K, x2 = 0.299	802.7 ± 0.3	–
288.15 K, x2 = 0.449	773.5 ± 0.3	–
288.15 K, x2 = 0.595	747.9 ± 0.3	–
288.15 K, x2 = 0.749	724.2 ± 0.3	–
293.15 K, x2 = 0	866.9 ± 0.2	–
293.15 K, x2 = 0.15	830.5 ± 0.3	–
293.15 K, x2 = 0.299	798.3 ± 0.3	–
293.15 K, x2 = 0.449	769.1 ± 0.3	–
293.15 K, x2 = 0.595	743.6 ± 0.3	–
293.15 K, x2 = 0.749	719.9 ± 0.3	–
297.82 K, x2 = 0	–	27.76 ± 0.3
297.82 K, x2 = 0.15	–	25.16 ± 0.28
297.82 K, x2 = 0.299	–	23.47 ± 0.27
297.82 K, x2 = 0.449	–	22.17 ± 0.26
297.82 K, x2 = 0.595	–	21.35 ± 0.26
297.82 K, x2 = 0.749	–	20.56 ± 0.25
298.15 K, x2 = 0	862.4 ± 0.2	–
298.15 K, x2 = 0.15	826 ± 0.3	–
298.15 K, x2 = 0.299	794.1 ± 0.3	–
298.15 K, x2 = 0.449	764.7 ± 0.3	–
298.15 K, x2 = 0.595	739.2 ± 0.3	–
298.15 K, x2 = 0.749	715.6 ± 0.3	–
303.15 K, x2 = 0	857.8 ± 0.2	–
303.15 K, x2 = 0.15	821.5 ± 0.3	–
303.15 K, x2 = 0.299	789.4 ± 0.3	–
303.15 K, x2 = 0.449	760.3 ± 0.3	–
303.15 K, x2 = 0.595	734.8 ± 0.3	–
303.15 K, x2 = 0.749	711.2 ± 0.3	–
307.86 K, x2 = 0	–	26.6 ± 0.29
307.86 K, x2 = 0.15	–	24.08 ± 0.27
307.86 K, x2 = 0.299	–	22.42 ± 0.26
307.86 K, x2 = 0.449	–	21.23 ± 0.25
307.86 K, x2 = 0.595	–	20.31 ± 0.25
307.86 K, x2 = 0.749	–	19.62 ± 0.25
308.15 K, x2 = 0	853.2 ± 0.2	–
308.15 K, x2 = 0.15	817 ± 0.3	–
308.15 K, x2 = 0.299	784.9 ± 0.3	–
308.15 K, x2 = 0.449	755.8 ± 0.3	–
308.15 K, x2 = 0.595	730.4 ± 0.3	–
308.15 K, x2 = 0.749	706.8 ± 0.3	–
313.15 K, x2 = 0	848.6 ± 0.2	–
313.15 K, x2 = 0.15	812.4 ± 0.3	–
313.15 K, x2 = 0.299	780.4 ± 0.3	–
313.15 K, x2 = 0.449	751.3 ± 0.3	–
313.15 K, x2 = 0.595	725.9 ± 0.3	–
313.15 K, x2 = 0.749	702.4 ± 0.3	–
317.86 K, x2 = 0	–	25.46 ± 0.28
317.86 K, x2 = 0.15	–	23.03 ± 0.26
317.86 K, x2 = 0.299	–	21.39 ± 0.25
317.86 K, x2 = 0.449	–	20.28 ± 0.25
317.86 K, x2 = 0.595	–	19.37 ± 0.24
317.86 K, x2 = 0.749	–	18.62 ± 0.24
318.15 K, x2 = 0	843.9 ± 0.2	–
318.15 K, x2 = 0.15	807.8 ± 0.3	–
318.15 K, x2 = 0.299	775.8 ± 0.3	–
318.15 K, x2 = 0.449	746.8 ± 0.3	–
318.15 K, x2 = 0.595	721.4 ± 0.3	–
318.15 K, x2 = 0.749	697.9 ± 0.3	–
323.15 K, x2 = 0	839.2 ± 0.2	–
323.15 K, x2 = 0.15	803.1 ± 0.3	–
323.15 K, x2 = 0.299	771.2 ± 0.3	–
323.15 K, x2 = 0.449	742.2 ± 0.3	–
323.15 K, x2 = 0.595	716.9 ± 0.3	–
323.15 K, x2 = 0.749	693.4 ± 0.3	–
327.88 K, x2 = 0	–	24.29 ± 0.27
327.88 K, x2 = 0.15	–	22.05 ± 0.26
327.88 K, x2 = 0.299	–	20.44 ± 0.25
327.88 K, x2 = 0.449	–	19.31 ± 0.24
327.88 K, x2 = 0.595	–	18.43 ± 0.24
327.88 K, x2 = 0.749	–	17.66 ± 0.23
328.15 K, x2 = 0	834.5 ± 0.2	–
328.15 K, x2 = 0.15	798.5 ± 0.3	–
328.15 K, x2 = 0.299	766.5 ± 0.3	–
328.15 K, x2 = 0.449	737.6 ± 0.3	–
328.15 K, x2 = 0.595	712.3 ± 0.3	–
328.15 K, x2 = 0.749	688.8 ± 0.3	–
333.15 K, x2 = 0	829.8 ± 0.2	–
333.15 K, x2 = 0.15	793.8 ± 0.2	–
333.15 K, x2 = 0.299	761.8 ± 0.3	–
333.15 K, x2 = 0.449	733 ± 0.3	–
333.15 K, x2 = 0.595	707.7 ± 0.3	–
333.15 K, x2 = 0.749	684.2 ± 0.3	–
